Laboratory results taken from patent US8088804B2, “N-hydroxyamide derivatives possessing antibacterial activity” (Pfizer Inc., priority 2005, dated 2012).
≈ marks a conversion by molar mass, not a printed value.

Key:
H. influen. = experiment: Susceptibility testing (MIC, CLSI microdilution); type: cell-based, Haemophilus influenzae; conditions: 20 h at 35° C., unit assumed
E. coli (2) = experiment: Susceptibility testing (MIC, CLSI microdilution); type: cell-based, Escherichia coli; conditions: 20 h at 35° C., in µg/mL (unit assumed)
E. coli tolC = experiment: Susceptibility testing (MIC, CLSI microdilution); type: cell-based, Escherichia coli; conditions: 20 h at 35° C., unit assumed
P. aerug. (2) = experiment: Susceptibility testing (MIC, CLSI microdilution); type: cell-based, Pseudomonas aeruginosa; conditions: 20 h at 35° C., in µg/mL (unit assumed)
P. aerug. Hypersuc = experiment: Susceptibility testing (MIC, CLSI microdilution); type: cell-based, Pseudomonas aeruginosa; conditions: 20 h at 35° C., Δ efflux, hypersusceptible strain, unit assumed
K. pneu. = experiment: Susceptibility testing (MIC, CLSI microdilution); type: cell-based, Klebsiella pneumoniae; conditions: 20 h at 35° C., unit assumed
P. ae LpxC enzyme = P. ae LpxC enzyme (Pseudomonas aeruginosa, UniProt P47205); experiment: Enzyme inhibition testing (fluorescamine assay); type: biochemical; conditions: read-out: ENZYME (percent inhibition); for inhibition at 0.5 µg/mL: @0.5 μg/ml; for inhibition at 0.1 µg/mL: @0.1 μg/ml
Sequence of P. ae LpxC enzyme (P47205 whole entry): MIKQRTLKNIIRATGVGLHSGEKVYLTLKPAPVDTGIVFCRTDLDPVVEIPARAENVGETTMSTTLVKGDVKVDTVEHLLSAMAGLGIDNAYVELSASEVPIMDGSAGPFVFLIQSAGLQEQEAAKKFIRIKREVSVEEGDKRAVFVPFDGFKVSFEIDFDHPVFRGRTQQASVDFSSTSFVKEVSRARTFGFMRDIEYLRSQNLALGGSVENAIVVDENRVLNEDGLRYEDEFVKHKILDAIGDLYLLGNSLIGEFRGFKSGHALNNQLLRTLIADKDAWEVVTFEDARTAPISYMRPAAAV

CCCc1ccc(-c2ccc(C(=O)N3C[C@H](O)[C@H](O)[C@H]3C(=O)NO)cc2)cc1 [Compound 10]
MIC H. influen. (H. influen.): > 64 µg/mL
MIC E. coli (2) (E. coli (2)): >64
MIC E. coli tolC (E. coli tolC): 64 µg/mL (≈ 166 µM)
MIC P. aerug. (2) (P. aerug. (2)): >64
MIC P. aerug. Hypersuc (P. aerug. Hypersuc): 64 µg/mL (≈ 166 µM)
MIC K. pneu. (K. pneu.): > 64 µg/mL
inhibition at 0.5 µg/mL (P. ae LpxC enzyme): 60%

CCCc1ccc(-c2ccc(C(=O)N3CC[C@H](NC)[C@H]3C(=O)NO)cc2)cc1 [Compound 5]
MIC H. influen. (H. influen.): 32 µg/mL (≈ 83.9 µM)
MIC E. coli (2) (E. coli (2)): 64
MIC E. coli tolC (E. coli tolC): 32 µg/mL (≈ 83.9 µM)
MIC P. aerug. (2) (P. aerug. (2)): >64
MIC P. aerug. Hypersuc (P. aerug. Hypersuc): 64 µg/mL (≈ 168 µM)
MIC K. pneu. (K. pneu.): > 64 µg/mL
inhibition at 0.5 µg/mL (P. ae LpxC enzyme): 29%

CCCc1ccc(-c2ccc(C(=O)N3CC[C@H](NS(C)(=O)=O)[C@H]3C(=O)NO)cc2)cc1 [Compound 3, (2S,3S)-N-Hydroxy-3-(methylsulfonamido)-1-(4′-propylbiphenylcarbonyl)pyrrolidine-2-carboxamide]
MIC H. influen. (H. influen.): > 64 µg/mL
MIC E. coli (2) (E. coli (2)): >64
MIC E. coli tolC (E. coli tolC): 32 µg/mL (≈ 71.8 µM)
MIC P. aerug. (2) (P. aerug. (2)): >64
MIC P. aerug. Hypersuc (P. aerug. Hypersuc): > 64 µg/mL
MIC K. pneu. (K. pneu.): > 64 µg/mL
inhibition at 0.5 µg/mL (P. ae LpxC enzyme): 55%

CCCc1ccc(-c2ccc(C(=O)N3C[C@@](O)(COC)C[C@H]3C(=O)NO)cc2)cc1 [Compound 9, (2S,4R)-N,4-Dihydroxy-4-(methoxymethyl)-1-(4′-propylbiphenylcarbonyl)pyrrolidine-2-carboxamide]
MIC H. influen. (H. influen.): > 64 µg/mL
MIC E. coli (2) (E. coli (2)): >64
MIC E. coli tolC (E. coli tolC): > 64 µg/mL
MIC P. aerug. (2) (P. aerug. (2)): >64
MIC P. aerug. Hypersuc (P. aerug. Hypersuc): 32 µg/mL (≈ 77.6 µM)
MIC K. pneu. (K. pneu.): > 64 µg/mL
inhibition at 1 µg/mL (P. ae LpxC enzyme; @1 μg/ml): 57%

O=C(NC(C(=O)NO)C(F)(F)F)c1ccc(-c2ccsc2)cc1 (racemic) [Compound 24, DL-4-Thiophen-3-yl-N-(2,2,2-trifluoro-1-hydroxycarbamoyl-ethyl)-benzamide]
MIC H. influen. (H. influen.): 8 µg/mL (≈ 23.2 µM)
MIC E. coli (2) (E. coli (2)): >64
MIC E. coli tolC (E. coli tolC): 16 µg/mL (≈ 46.5 µM)
MIC P. aerug. (2) (P. aerug. (2)): 32
MIC P. aerug. Hypersuc (P. aerug. Hypersuc): 2 µg/mL (≈ 5.81 µM)
MIC K. pneu. (K. pneu.): > 64 µg/mL
inhibition at 0.1 µg/mL (P. ae LpxC enzyme): 13%

CCCc1ccc(-c2ccc(C(=O)N[C@@H](CCSC)C(=O)NO)cc2)cc1 [Compound 26, (S)-N-(1-(Hydroxyamino)-4-(methylthio)-1-oxobutan-2-yl)-4′-propylbiphenyl-4-carboxamide]
MIC H. influen. (H. influen.): > 64 µg/mL
MIC E. coli (2) (E. coli (2)): >64
MIC E. coli tolC (E. coli tolC): > 64 µg/mL
MIC P. aerug. (2) (P. aerug. (2)): >64
MIC P. aerug. Hypersuc (P. aerug. Hypersuc): > 64 µg/mL
MIC K. pneu. (K. pneu.): > 64 µg/mL
inhibition at 0.5 µg/mL (P. ae LpxC enzyme): 72%

CCCc1ccc(-c2ccc(C(=O)NC(CSC)C(=O)NO)cc2)cc1 (stereo in doubt) [Compound 28, (S)-N-(1-(Hydroxyamino)-3-(methylthio)-1-oxopropan-2-yl)-4′-propylbiphenyl-4-carboxamide]
MIC H. influen. (H. influen.): > 64 µg/mL
MIC E. coli (2) (E. coli (2)): >64
MIC E. coli tolC (E. coli tolC): 32 µg/mL (≈ 85.9 µM)
MIC P. aerug. (2) (P. aerug. (2)): >64
MIC P. aerug. Hypersuc (P. aerug. Hypersuc): > 64 µg/mL
MIC K. pneu. (K. pneu.): > 64 µg/mL
inhibition at 0.1 µg/mL (P. ae LpxC enzyme): 13%

COc1ccc(C(=O)N2CC[C@@H](O)[C@H]2C(=O)NO)cc1SC(F)(F)F [Compound 40, (2S,3R)-3-Hydroxy-N-hydroxy-1-(4-methoxy-3-trifluoromethylsulfanyl-benzoyl)-pyrrolidine-2-carboxamide]
MIC H. influen. (H. influen.): > 64 µg/mL
MIC E. coli (2) (E. coli (2)): >64
MIC E. coli tolC (E. coli tolC): 32 µg/mL (≈ 84.1 µM)
MIC P. aerug. (2) (P. aerug. (2)): >64
MIC P. aerug. Hypersuc (P. aerug. Hypersuc): > 64 µg/mL
MIC K. pneu. (K. pneu.): 64 µg/mL (≈ 168 µM)
inhibition at 10 µg/mL (P. ae LpxC enzyme; @10 μg/ml): 52%

CCCc1ccc(-c2ccc(C(=O)N3CCS(=O)(=O)[C@@H]3C(=O)NO)cc2)cc1 [Compound 19, (R)-N-Hydroxy-3-(4′-propylbiphenylcarbonyl)thiazolidine-sulfone-2-carboxamide]
MIC H. influen. (H. influen.): 32 µg/mL (≈ 79.5 µM)
MIC E. coli (2) (E. coli (2)): 8-16
MIC E. coli tolC (E. coli tolC): 2 µg/mL (≈ 4.97 µM)
MIC P. aerug. (2) (P. aerug. (2)): 8
MIC P. aerug. Hypersuc (P. aerug. Hypersuc): 2 µg/mL (≈ 4.97 µM)
MIC K. pneu. (K. pneu.): 4 µg/mL (≈ 9.94 µM)
inhibition at 0.1 µg/mL (P. ae LpxC enzyme): 10%

CCCc1ccc(-c2ccc(C(=O)N3CC[S+]([O-])[C@H]3C(=O)NO)cc2)cc1 (stereo partly drawn) [Compound 14, (S)-N-Hydroxy-3-(4′-propylbiphenylcarbonyl)thiazolidine-sulfoxide-2-carboxamide]
MIC H. influen. (H. influen.): > 64 µg/mL
MIC E. coli (2) (E. coli (2)): >64
MIC E. coli tolC (E. coli tolC): 16 µg/mL (≈ 41.4 µM)
MIC P. aerug. (2) (P. aerug. (2)): 32
MIC P. aerug. Hypersuc (P. aerug. Hypersuc): 8 µg/mL (≈ 20.7 µM)
MIC K. pneu. (K. pneu.): 64 µg/mL (≈ 166 µM)
inhibition at 0.5 µg/mL (P. ae LpxC enzyme): 99%
